≈ marks a conversion by molar mass, not a printed value.
Assays:
Chaetomium globosum = assay: Minimum inhibitory concentration, Chaetomium globosum (Chg); assay type: cell-based
Method: (§1) Inocula of the fungi Aspergillus niger, Cladosporium resinae and Chaetomium globosum were prepared containing 5×10^5 conidia/ml in a potato dextrose broth. The potato dextrose broth was prepared by suspending 4 g potato extract and 20 g dextrose in 1 liter of distilled water, warming to achieve solution, separating into aliquots and sterilising by autoclaving at 121° C. for 15 minutes.
(§2) Test procedures were as follows:
(§3) (ii) Dilution Series for Other Test Bacteria, Yeast and Filamentous Fungi
(§4) Dilution series from the stock solution of each compound were prepared in sterile distilled water. These contained 50, 100, 500 and 1000 ppm compound. To duplicate wells of a compartmentalised square petri dish 0.3 ml of each test compound concentration was added together with 2.7 ml of one of the microbial inocula described above. This gave final concentrations of the test compound of 5, 10, 50 and 100 ppm.
(§5) After incubation, in the dark, at 30° C. the wells were examined for the presence or absence of growth. Bacterial and yeast cultures were examined after 24 hours and 72 hours incubation and the fungi cultures after 3, 7 and 10 days.
(§6) By means of the above tests minimum inhibitory concentrations were determined for the various test compounds.

Desulfovibrio sp. = assay: Minimum inhibitory concentration, sulphate-reducing bacteria (Dsp); assay type: cell-based; conditions: 30° C., 2, 5 and 10 days
Method: The sulphate reducing bacteria Desulfovibrio sp. were cultured in a modified Postgate's Medium B for 48 hours at 30° C. and used directly as an inoculum. The modified Postgate's Medium B consisted of 0.5 g dipotassium hydrogen phosphate, 1 g ammonium chloride, 1 g sodium sulphate, 5 g sodium lactate, 1 g yeast extract, 0.1 ml thioglycolic acid, 0.1 ml ascorbic acid, 0.5 g ferrous sulphate heptahydrate, 750 ml aged seawater and 250 ml distilled water, pH adjusted to 7.8, divided into aliquots and sterilised by autoclaving at 121° C. for 15 minutes. […] Test procedures were as follows: (i) Suphate-reducing Bacteria Test Dilution Series Duplicate aliquots (9.9 ml) of dilution series from the stock solutions of each compound were prepared in a modified Postgate's Medium B described above. These contained 100 ppm compound. These were then inoculated with 0.1 ml of inoculum. After incubation at 30° C., the presence or absence of growth--as indicated by a blackening of the medium due to ferrous sulphide production--was recorded at 2, 5 and 10 days. […] By means of the above tests minimum inhibitory concentrations were determined for the various test compounds.

Cladosporium resinae = assay: Minimum inhibitory concentration, Cladosporium resinae (Cr); assay type: cell-based; conditions: Amorphotheca resinae, 30° C., 3, 7 and 10 days
Method: as §1, §2, §3, §4, §5, §6

Staphylococcus aureus = assay: Minimum inhibitory concentration, Staphylococcus aureus (Sa); assay type: cell-based, Staphylococcus aureus (NCIB 6571); conditions: 30° C., 24 and 72 hours
Method: (§7) In respect of S. aureus, B. subtilis and E. coli, the microorganisms were cultured in 50 ml aliquots of a tryptone soya broth in 250 ml conical flasks at 30° C. on a rotary shaker at 200 rpm for 24 hours. Tryptone soya broth was prepared by adding 17 g pancreatic digest of casein, 3 g […] digest of soyabean meal, 5 g of sodium chloride, 2.5 g of dipotassium hydrogen phosphate and 2.5 g of dextrose to 1 liter of distilled water, mixing and sterilising by autoclaving at 121° C. for 15 minutes. 1 ml aliquots of the resulting cultures were mixed with 99 ml of fresh tryptone soya broth and used as inocula for tests. […] Test procedures were as follows: (ii) Dilution Series for Other Test Bacteria, Yeast and Filamentous Fungi Dilution series from the stock solution of each compound were prepared in sterile distilled water. These contained 50, 100, 500 and 1000 ppm compound. To duplicate wells of a compartmentalised square petri dish 0.3 ml of each test compound concentration was added together with 2.7 ml of one of the microbial inocula described above. […] After incubation, in the dark, at 30° C. the wells were examined for the presence or absence of growth. Bacterial and yeast cultures were examined after 24 hours and 72 hours incubation and the fungi cultures after 3, 7 and 10 days. By means of the above tests minimum inhibitory concentrations were determined for the various test compounds.

Saccharomyces cerevisiae = assay: Minimum inhibitory concentration, yeast (Sc); assay type: cell-based, Saccharomyces cerevisiae (ATCC 9763); conditions: 30° C., 24 and 72 hours
Method: Inocula of S. cerevisiae were prepared as for S. aureus, B. subtilis and E. coli, but using yeast malt broth in place of the typtone soya broth. The yeast malt broth was prepared by suspending 3 g yeast extract, 3 g malt extract, 5 g peptone and 10 g dextrose in 1 liter of distilled water, warming to achieve solution and sterilising by autoclaving at 121° C. for 15 minutes.
as §2, §3, §4, §5, §6

[1] = test system: Pseudocercosporella herpotrichoides; assay: In vitro activity against wheat eyespot (Ph); assay type: cell-based; set-up: Ph: activity against wheat eyespot: scale not given here; conditions: in vitro, 100 ppm in agar, 11 days; activity grade 1 or 2, not defined
Method in brief: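 Compound was dispersed from acetone into half-strength potato dextrose agar at 100 ppm final. Two 5 mm mycelial plugs were placed on each plate, which was incubated 11 days at 20–22 °C in darkness. Diametric growth minus plug width was compared with acetone-only agar.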

Fusarium culmorum = assay: Activity against seedling wheat blight, soil drench (Fs); assay type: in vivo; set-up: scale not given here; conditions: 10 kg/ha, 21 days, activity grade 1 or 2, not defined
Method in brief: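 Wheat seeds (var Waggoner) soaked 6 h at 22° C in 7×10^5 spores/ml, sown in sand; 1 day later soil drench at 10 kg/ha (0.36 g/l in 12% v/v acetone/water). Glasshouse at 25° C; at 21 days, stem-base and upper-root lesions scored visually against control seedlings.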

Bacillus subtilis = assay: Minimum inhibitory concentration, Bacillus subtilis (Bs); assay type: cell-based; conditions: 30° C., 24 and 72 hours
Method: as §7

Aspergillus niger = assay: Minimum inhibitory concentration, Aspergillus niger (An); assay type: cell-based, Aspergillus niger (CMI 17454); conditions: 30° C., 3, 7 and 10 days
Method: as §1, §2, §3, §4, §5, §6

Escherichia coli = assay: Minimum inhibitory concentration, Escherichia coli (Ec); assay type: cell-based, Escherichia coli (NCIB 9517); conditions: 30° C., 24 and 72 hours
Method: as §7

| Compound | MIC (Chaetomium globosum; *only tested at 100 ppm) | MIC (Desulfovibrio sp.) | MIC (Cladosporium resinae) | MIC (Staphylococcus aureus) | MIC (Saccharomyces cerevisiae) | Ph: activity against wheat eyespot [1] | Fs: activity against seedling wheat blight (Fusarium culmorum) | MIC (Bacillus subtilis) | MIC (Aspergillus niger) | MIC (Escherichia coli) | MIC (Chaetomium globosum; 30° C., 3, 7 and 10 days) |
| --- | --- | --- | --- | --- | --- | --- | --- | --- | --- | --- | --- |
| N#CN=[N+]([O-])c1cc(Cl)cc2c1OC(CCl)C2 (stereo not drawn) [Example 10] | < 100 µg/mL | 100 µg/mL (≈ 368 µM) | 25 µg/mL (≈ 91.9 µM) | > 100 µg/mL | > 100 µg/mL | 2 | 2 | > 100 µg/mL | 25 µg/mL (≈ 91.9 µM) | > 100 µg/mL |  |
| N#CN=[N+]([O-])c1cc(Cl)cc2c1OCC=C2 [Example 26] |  | 100 µg/mL (≈ 424 µM) | 25 to 100 µg/mL (≈ 106 to 424 µM) | 100 µg/mL (≈ 424 µM) | > 100 µg/mL | 1 | 2 | 50 µg/mL (≈ 212 µM) | 25 to 50 µg/mL (≈ 106 to 212 µM) | > 100 µg/mL | 50 µg/mL (≈ 212 µM) |
| CC1(C)C=Cc2cc(F)cc([N+]([O-])=NC#N)c2O1 [Example 29] |  | > 100 µg/mL | 50 to 100 µg/mL (≈ 202 to 404 µM) | > 100 µg/mL | 50 µg/mL (≈ 202 µM) | 2 | 2 | 100 µg/mL (≈ 404 µM) | 25 to 100 µg/mL (≈ 101 to 404 µM) | > 100 µg/mL | 5 to 100 µg/mL (≈ 20.2 to 404 µM) |
| N#CN=[N+]([O-])c1ccc2oc(=O)ccc2c1 [Example 1] |  | 25 µg/mL (≈ 116 µM) | 25 to 50 µg/mL (≈ 116 to 232 µM) | > 100 µg/mL | 5 to 25 µg/mL (≈ 23.2 to 116 µM) | 2 | 2 | 50 µg/mL (≈ 232 µM) | 25 µg/mL (≈ 116 µM) | > 100 µg/mL | 10 µg/mL (≈ 46.5 µM) |
| Cc1oc2c([N+]([O-])=NC#N)cccc2c1C [Example 18] |  | > 100 µg/mL | 100 µg/mL (≈ 465 µM) | 5 µg/mL (≈ 23.2 µM) | 100 µg/mL (≈ 465 µM) | 1 | 2 | > 100 µg/mL | 100 µg/mL (≈ 465 µM) | > 100 µg/mL | 100 µg/mL (≈ 465 µM) |
| CC1Cc2cc(Cl)cc([N+]([O-])=NC#N)c2O1 (stereo not drawn) [Example 6] |  | 100 µg/mL (≈ 421 µM) | 25 µg/mL (≈ 105 µM) | 100 µg/mL (≈ 421 µM) | 25 µg/mL (≈ 105 µM) | 2 | 2 | 100 µg/mL (≈ 421 µM) | 25 µg/mL (≈ 105 µM) | > 100 µg/mL | 25 µg/mL (≈ 105 µM) |
| Cc1cc2cc([N+]([O-])=NC#N)ccc2o1 [Example 23] | < 100 µg/mL | 100 µg/mL (≈ 497 µM) | 25 µg/mL (≈ 124 µM) | > 100 µg/mL | 25 µg/mL (≈ 124 µM) | 1 | 2 | 50 µg/mL (≈ 249 µM) | 25 µg/mL (≈ 124 µM) | > 100 µg/mL |  |
| N#CN=[N+]([O-])c1cccc2c3c(oc12)CCCC3 [Example 17] |  | > 100 µg/mL | 25 µg/mL (≈ 104 µM) | 100 µg/mL (≈ 415 µM) | 50 µg/mL (≈ 207 µM) | 1 | 2 | > 100 µg/mL | < 5 µg/mL | > 100 µg/mL | < 100 µg/mL |
| CC1(C)Cc2cc(Cl)cc([N+]([O-])=NC#N)c2O1 [Example 4] |  | > 100 µg/mL | 25 µg/mL (≈ 99.3 µM) | 100 µg/mL (≈ 397 µM) | > 100 µg/mL | 2 | 2 | 50 µg/mL (≈ 199 µM) | 100 µg/mL (≈ 397 µM) | > 100 µg/mL | > 100 µg/mL |
| Cc1cc2cccc([N+]([O-])=NC#N)c2o1 [Example 16] |  | 50 to 100 µg/mL (≈ 249 to 497 µM) | > 100 µg/mL | > 100 µg/mL | 100 µg/mL (≈ 497 µM) | 1 | 1 | > 100 µg/mL | 50 µg/mL (≈ 249 µM) | > 100 µg/mL |  |
| N#CN=[N+]([O-])c1cc(Cl)cc2c1OC(CO)C2 (stereo not drawn) [Example 11] |  | 100 µg/mL (≈ 394 µM) | 50 µg/mL (≈ 197 µM) | 100 µg/mL (≈ 394 µM) | 100 µg/mL (≈ 394 µM) | 2 | 2 | 25 µg/mL (≈ 98.6 µM) | 25 µg/mL (≈ 98.6 µM) | 100 µg/mL (≈ 394 µM) | 25 µg/mL (≈ 98.6 µM) |
| CC1Oc2c(cccc2[N+]([O-])=NC#N)C1C (stereo not drawn) [Example 9] |  | 100 µg/mL (≈ 460 µM) | 25 µg/mL (≈ 115 µM) | > 100 µg/mL | 50 µg/mL (≈ 230 µM) | 2 | 2 | 50 µg/mL (≈ 230 µM) | 25 µg/mL (≈ 115 µM) | > 100 µg/mL | 50 µg/mL (≈ 230 µM) |
| CC1Oc2c(cc(Cl)cc2[N+]([O-])=NC#N)C1C (stereo not drawn) [Example 5] |  | > 100 µg/mL | 25 µg/mL (≈ 99.3 µM) | > 100 µg/mL | 50 µg/mL (≈ 199 µM) | 2 | 2 | 100 µg/mL (≈ 397 µM) | 10 µg/mL (≈ 39.7 µM) | > 100 µg/mL | 5 to 25 µg/mL (≈ 19.9 to 99.3 µM) |

Reference: US5376679A, “Bicyclic or tricyclic biocidal compounds” (Shell Internationale Research Maatschappij B.V., priority 1988, dated 1994)
